Measured values reported in PubChem BioAssay (NCI).
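Method: 48-hour compound exposure of cells in 96-well plates, five concentrations, linear interpolation of endpoints. GI50: concentration for 50% inhibition of growth. The concentration for full growth arrest is given as TGI.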

Experiments:
Test in all cases: NCI tumour cell line growth inhibition, 48 h
CCRF-CEM leukemia = tested on: CCRF-CEM leukemia
COLO 205 colon = tested on: COLO 205 colon
IGROV1 ovarian = tested on: IGROV1 ovarian
MOLT-4 leukemia = tested on: MOLT-4 leukemia
SK-MEL-2 melanoma = tested on: SK-MEL-2 melanoma
ACHN renal = tested on: ACHN renal
BT-549 breast = tested on: BT-549 breast
DU-145 prostate = tested on: DU-145 prostate
MDA-MB-435 = tested on: MDA-MB-435
SR leukemia = tested on: SR leukemia

Structure (SMILES)	TGI (CCRF-CEM leukemia) [µM]	TGI (COLO 205 colon) [µM]	TGI (IGROV1 ovarian) [µM]	TGI (MOLT-4 leukemia) [µM]	TGI (SK-MEL-2 melanoma) [µM]	TGI (ACHN renal) [µM]	TGI (BT-549 breast) [µM]	TGI (DU-145 prostate) [µM]	TGI (MDA-MB-435) [µM]	TGI (SR leukemia) [µM]	GI50 (ACHN renal) [µM]	GI50 (BT-549 breast) [µM]	GI50 (CCRF-CEM leukemia) [µM]	GI50 (COLO 205 colon) [µM]	GI50 (DU-145 prostate) [µM]	GI50 (IGROV1 ovarian) [µM]	GI50 (MDA-MB-435) [µM]	GI50 (MOLT-4 leukemia) [µM]	GI50 (SK-MEL-2 melanoma) [µM]
O=C1CCCn2c3ccccc3c3ccnc1c32	> 100	> 100	> 100	> 100	> 100	–	–	–	–	–	–	–	–	–	–	–	–	–	–
O=c1[nH]/c(=C/c2cccs2)c(=O)[nH]/c1=C/c1ccc(OCc2ccccc2)cn1	4.34	12.5	> 100	> 35.8	> 52.2	> 100	3.75	5.04	0.0182	0.587	–	–	–	–	–	–	–	–	–
O=c1[nH]nc(Nc2ccccc2)c2nnn(Cc3ccccc3)c12	> 100	> 100	> 100	> 100	> 100	> 100	> 100	> 100	> 100	> 100	–	–	–	–	–	–	–	–	–
CC(CCC(=O)O)(c1cc(Br)c(O)c(Br)c1)c1cc(Br)c(O)c(Br)c1	> 100	> 100	> 100	> 100	> 100	> 100	> 100	> 100	> 100	> 100	–	–	–	–	–	–	–	–	–
CS(=O)(=O)c1ccc(C2=C(c3ccccc3)C(=O)OC2)cc1	> 100	> 100	> 100	> 100	> 100	> 100	–	> 100	> 100	> 100	–	–	–	–	–	–	–	–	–
COC(=O)c1ccc2c(c1)CC1(C2)Cc2ccc3c(c2C1)CCC3 (stereo not drawn)	> 100	32.1	> 100	37.4	–	> 100	–	> 100	14.3	> 100	–	–	–	–	–	–	–	–	–
CCCc1c(OC)c(O)c2c(=O)cc(OC)c3c4c(OC)cc(=O)c5c(O)c(OC)c(CCC)c(c1c23)c54	50.1	14.9	16.2	5.69	22.1	17	19.8	13.2	14.3	> 100	–	–	–	–	–	–	–	–	–
C=CCn1c(-c2ccc(N=NNc3ccc(-c4n[nH]c(=S)n4CC=C)cc3)cc2)n[nH]c1=S	> 100	> 100	15.1	–	–	5.09	6.68	16	> 100	> 100	–	–	–	–	–	–	–	–	–
CN(CCN(C)Cc1ccc(Cl)c(Cl)c1)CCN1CCCC1	23.6	41.2	> 79.1	> 72.4	59.9	> 100	> 100	> 100	24.3	–	–	–	–	–	–	–	–	–	–
O=C(O)C(C1NCCS1)N1Cc2ccccc2C1 (stereo not drawn)	> 100	> 100	> 100	> 100	> 100	> 100	> 100	> 100	> 100	> 100	–	–	–	–	–	–	–	–	–
O=C1OS2(OC(=O)c3cccc4cccc2c34)c2ccccc21 (stereo not drawn)	> 100	> 100	> 100	> 100	> 100	> 100	> 100	> 100	> 100	–	–	–	–	–	–	–	–	–	–
COc1cc(/C=C/C(=O)OC[C@]23O[C@H]2[C@@H](OC2OC(C)C(O)C(O)C2O)C2C=CO[C@@H](OC4OC(CO)C(O)C(O)C4O)C23)ccc1O (stereo partly drawn)	–	> 100	> 100	> 100	> 100	> 100	> 100	> 100	> 100	> 100	–	–	–	–	–	–	–	–	–
O=c1[nH]c(=O)n(COCCO)cc1-c1ccccc1	> 100	> 100	> 100	> 100	> 100	> 100	–	> 100	> 100	> 100	–	–	–	–	–	–	–	–	–
Cc1ccc(N=c2oc3c(ccc4ccccc43)nc2Nc2ccc(C)cc2)cc1	> 100	> 100	> 100	> 100	> 100	> 100	–	> 100	> 100	> 100	–	–	–	–	–	–	–	–	–
COC(=O)[C@@]12CC3CN(Cc4c1[nH]c1ccccc41)C2CC3=O	> 100	> 100	> 100	> 100	> 100	> 100	> 100	> 100	> 100	–	–	–	–	–	–	–	–	–	–
CC(C)OCC(O)COc1cc(=O)oc2ccccc12 (stereo not drawn)	> 100	> 100	> 100	> 100	> 100	> 100	–	> 100	> 100	> 100	–	–	–	–	–	–	–	–	–
COc1cc(CNc2nc3cc(C(F)(F)F)ccc3nc2C(=O)O)cc(OC)c1OC	–	53.7	–	58.1	47.1	73.3	> 100	> 100	92.9	> 100	–	–	–	–	–	–	–	–	–

Structure (SMILES)	TGI (CCRF-CEM leukemia) [µM]	TGI (COLO 205 colon) [µM]	TGI (IGROV1 ovarian) [µM]	TGI (MOLT-4 leukemia) [µM]	TGI (SK-MEL-2 melanoma) [µM]	TGI (ACHN renal) [µM]	TGI (BT-549 breast) [µM]	TGI (DU-145 prostate) [µM]	TGI (MDA-MB-435) [µM]	TGI (SR leukemia) [µM]	GI50 (ACHN renal) [µM]	GI50 (BT-549 breast) [µM]	GI50 (CCRF-CEM leukemia) [µM]	GI50 (COLO 205 colon) [µM]	GI50 (DU-145 prostate) [µM]	GI50 (IGROV1 ovarian) [µM]	GI50 (MDA-MB-435) [µM]	GI50 (MOLT-4 leukemia) [µM]	GI50 (SK-MEL-2 melanoma) [µM]
O=C(O)CC(Cc1ccccc1)C(=O)O (stereo not drawn)	> 100	> 100	> 100	> 100	> 100	> 100	> 100	> 100	> 100	–	–	–	–	–	–	–	–	–	–
O=C(O)c1cc(/C=C/c2ccc(O)c(O)c2)ccc1O	82.1	> 100	> 100	> 100	> 100	> 100	–	> 100	> 100	> 100	–	–	–	–	–	–	–	–	–
C/C(=C/CC[C@](C)(OC1OC(CO)C(O)C(O)C1OC1OC(C)C(O)C(O)C1O)[C@H]1CC[C@]2(C)[C@@H]1CC[C@@H]1[C@@]3(C)CC[C@H](O)C(C)(C)[C@@H]3C[C@H](O)[C@]12C)CO (stereo partly drawn)	> 100	> 100	> 100	> 100	–	> 100	> 100	> 100	> 100	> 100	–	–	–	–	–	–	–	–	–
O=C(/C=C/c1ccco1)c1ccc(Nc2ccnc3cc(Cl)ccc23)cc1	> 100	> 100	> 100	> 100	> 100	> 100	> 100	> 100	> 100	–	> 100	> 100	6.56	39.2	9.33	15.2	> 100	3.18	76.7
COc1c2c(cc3oc(=O)ccc13)OC(C)(C)C=C2	–	73.6	75.7	59.1	51.1	70	70.2	55.9	68.7	44.6	–	–	–	–	–	–	–	–	–
COc1ccc(/C=N/N=C(N)N)c(C(=O)O)c1OC	> 100	> 10	> 10	> 100	–	> 100	–	–	–	–	–	–	–	–	–	–	–	–	–
C=CCCCN1C(=O)C2C3c4ccccc4C(C=O)(c4ccccc43)C2C1=O (stereo not drawn)	17.6	25.2	65.1	19.4	59.5	> 100	–	26.1	–	18.1	–	–	–	–	–	–	–	–	–
O=C(OCc1ccccc1[N+](=O)[O-])N1c2ccccc2[C@@]23O[C@]24CCC[C@H]3C#C/C=C\C#C[C@H]14	66.6	> 100	> 100	8.11	> 100	> 100	> 100	> 100	> 100	–	–	–	–	–	–	–	–	–	–
COc1cc(C(C)(C)C)c(OC(=O)/C=C/C(=O)O/C=C/[N+](=O)[O-])c(C(C)(C)C)c1	37.3	> 100	> 100	> 100	–	> 100	–	> 100	58.1	> 100	–	–	–	–	–	–	–	–	–
N#CCCN(CCN(CCN(C(=O)Nc1ccccc1)c1ccccc1)C(=O)Nc1ccccc1)C(=O)Nc1ccccc1	> 100	> 100	> 100	> 100	> 100	> 100	> 100	> 100	> 100	–	–	–	–	–	–	–	–	–	–
CCCCc1ccc(Nc2nc(N)c3[nH]cnc3n2)cc1	52.4	38.1	27.9	40.2	57.6	35.5	47.9	56.7	40.6	–	–	–	–	–	–	–	–	–	–
COc1ccc(NC(=O)c2cc(NC(=O)/C=C/c3ccccc3)c(OC)c(OC)c2)cc1	> 100	> 100	–	> 100	7.27	> 100	–	> 100	9.38	> 100	–	–	–	–	–	–	–	–	–
COC12OC3(C4OC41)C(C(=O)O[C@H]3CO[Si](C)(C)C(C)(C)C)C2S(=O)(=O)c1ccccc1 (stereo partly drawn)	4.04	47.3	–	3.53	> 5.33	> 83.9	> 100	> 6.06	> 5.11	> 100	–	–	–	–	–	–	–	–	–
Oc1cccc(-c2cc(=S)ss2)c1	–	35.6	29.8	> 100	30.5	30.1	35.8	–	53.8	11.9	–	–	–	–	–	–	–	–	–
CN(C)CCNc1ccccn1	–	–	> 100	> 100	> 100	> 100	> 100	> 100	> 100	> 100	–	–	–	–	–	–	–	–	–
N.N.NCCCCN.O=C([O-])CCl.O=C([O-])CCl.O=C([O-])CCl.O=C([O-])CCl.[Pt+4].[Pt+4]	> 50	> 50	> 50	> 50	> 50	> 50	–	–	–	> 50	–	–	–	–	–	–	–	–	–
